According to PMC5424110, “Preclinical anti-arthritic study and pharmacokinetic properties of a potent histone deacetylase inhibitor MPT0G009” (Cell Death & Disease, 2014):
“Also recorded” adds a separate entry of the source.

Experiments:
[1] = system: histone H3 acetylation and HDAC3 in RA-FLS; assay: Western blot of acetyl histone H3 and HDAC isoforms, RA-FLS; format: cell-based, human
Experimental: Then, cells were harvested and cell lysates were prepared for western blot analysis of the indicated proteins. (c) RA-FLSs were incubated for 1 h with or without the proteasome inhibitor, MG132 (1 μM). […] Results shown are representative of three independent experiments.

[2] = target: T1, recombinant HDAC6 (Homo sapiens, UniProt Q9UBN7); assay: Fluorogenic assay kit, recombinant HDAC6 enzyme activity; format: biochemical; conditions: mean±S.E.M., three replicate experiments; read-out: IC50 (nM) of HDAC isoforms enzyme, HDAC6
T1 construct: purchased BPS Bioscience Corp. (San Diego, CA, USA)
T1 sequence (Q9UBN7 whole entry, canonical isoform): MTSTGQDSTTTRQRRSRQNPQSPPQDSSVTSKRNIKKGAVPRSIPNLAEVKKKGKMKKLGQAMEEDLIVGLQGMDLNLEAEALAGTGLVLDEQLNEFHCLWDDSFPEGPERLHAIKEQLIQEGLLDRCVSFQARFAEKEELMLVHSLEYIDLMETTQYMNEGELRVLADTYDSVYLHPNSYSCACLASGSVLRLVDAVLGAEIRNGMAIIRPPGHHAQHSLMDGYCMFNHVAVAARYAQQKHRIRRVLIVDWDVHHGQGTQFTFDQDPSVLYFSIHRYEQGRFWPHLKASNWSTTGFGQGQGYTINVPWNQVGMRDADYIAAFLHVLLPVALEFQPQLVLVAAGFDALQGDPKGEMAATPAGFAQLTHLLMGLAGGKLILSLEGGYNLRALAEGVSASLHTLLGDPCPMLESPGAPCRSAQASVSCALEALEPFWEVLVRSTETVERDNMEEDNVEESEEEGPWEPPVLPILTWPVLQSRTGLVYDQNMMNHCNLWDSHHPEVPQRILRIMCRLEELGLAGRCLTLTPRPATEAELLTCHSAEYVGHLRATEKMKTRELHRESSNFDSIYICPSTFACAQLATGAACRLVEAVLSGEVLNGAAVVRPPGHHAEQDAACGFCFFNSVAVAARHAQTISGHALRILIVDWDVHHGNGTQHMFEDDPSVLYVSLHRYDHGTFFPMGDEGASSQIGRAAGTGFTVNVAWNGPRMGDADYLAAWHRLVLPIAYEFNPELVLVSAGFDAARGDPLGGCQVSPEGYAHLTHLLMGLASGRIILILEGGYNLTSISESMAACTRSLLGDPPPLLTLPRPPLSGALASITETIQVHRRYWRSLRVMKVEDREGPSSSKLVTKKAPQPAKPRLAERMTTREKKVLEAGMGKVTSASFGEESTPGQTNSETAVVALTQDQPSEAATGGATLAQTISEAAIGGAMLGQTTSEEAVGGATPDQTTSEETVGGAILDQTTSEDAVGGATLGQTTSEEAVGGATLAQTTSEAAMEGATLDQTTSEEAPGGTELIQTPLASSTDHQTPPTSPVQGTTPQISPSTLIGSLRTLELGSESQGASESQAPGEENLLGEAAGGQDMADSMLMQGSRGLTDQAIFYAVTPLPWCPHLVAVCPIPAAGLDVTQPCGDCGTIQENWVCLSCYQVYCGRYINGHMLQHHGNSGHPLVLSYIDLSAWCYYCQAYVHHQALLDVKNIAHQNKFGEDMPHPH
Description: Using kits that contained different recombinant HDAC isoforms, we evaluated the ability of MPT0G009 to inhibit HDAC-mediated deacetylation of lysine residues on the substrates that were provided. […] Fluorogenic HDAC assay kits were used to assess the ability of HDAC inhibitors to inhibit deacetylation of lysine residues on the substrate by recombinant HDAC1, 2, 3, 4, 6 or 8 according to the manufacturer's instructions.

[3] = system: HDACs in rabbit synovial fibroblast cell line HIG-82; assay: HDAC activity assay of cell lysates (HIG-82); format: cell-based; conditions: HIG-82 cell line
Description: (§1) We have synthesized 1-arylsulfonyl-5-(N-hydroxyacrylamide) indolines derivative HDAC inhibitors. […] In this study, we evaluated the anti-arthritic effects of MPT0G009 in vitro and in an in vivo model and determined the pharmacokinetics and its maximum tolerated dose (MTD).
(§2) Colorimetric HDAC activity kits were used to assay HDAC activity in cell lysates according to the manufacturer's instructions.

[4] = Pharmacokinetic evaluation in Sprague–Dawley rats; format: in vivo; conditions: male, plasma, rat
Experimental: The pharmokinetic parameters of MPT0G009 in rats after single-dose intravenous (i.v.) and oral administration are summarized in Table 2.
A 1–5 mg/ml dosing solution was preparing by dissolving appropriate amount compound in a mixture of PEG400/DMSO (80 : 20, v/v) for i.v. administration and 1% carboxylmethyl cellulose, 0.5% Tween 80 for oral dosing, respectively. Eight to 10-week-old male Sprague–Dawley rats were obtained from BioLASCO Corp. (Ilan, Taiwan), and tested compound was separately administered to group of rats (n=3 per group) i.v. (2 mg/kg dose) by a bolus injection to jugular vein or periorally (20 mg/kg dose). Blood sample (0.15 ml) from 0 h (before dosing) to 24 h was collected from each animal via the jugular vein cannula and stored in ice. Plasma was separated from the blood and centrifuged at 14 000 g for 30 min at 4 °C. All samples were analyzed for the test compound by LC-MS/MS (ABI4000; Applied Biosystems, Foster City, CA, USA). Data were acquired via multiple reactions monitoring. Plasma concentration data were analyzed with standard noncompartmental method.

[5] = system: HDACs in human RA fibroblast-like synoviocytes; assay: HDAC activity assay of cell lysates (RA-FLS); format: cell-based
Description: as §1, §2

[6] = system: RAW264.7 cells; assay: Inflammatory mediator production by LPS-stimulated RAW264.7 cells; format: cell-based, mouse; conditions: RAW264.7, LPS 25 ng/ml 24 h; MPT0G009 0.1, 1 or 10 μM; SAHA 0.3, 3 or 30 μM
Experimental: (§3) (a) Structure of MPT0G009.
(§4) These supernatants were then assayed for prostaglandin E2 (PGE2), NO and IL-6.

[7] = system: CD-1 mice; assay: Determination of the MTD in CD-1 mice; format: in vivo; conditions: for Lethality (%): qd × 7; for Change of body weight (%) Day 7 / Change of body weight (%) Day 14 / Change of body weight (%) Day 21: qd × 7, mean±S.E.M.
Experimental: The MTD was determined using CD-1 mice at 8–10 weeks of age by dose ranging from 250 to 1000 mg/kg orally once a day for 1 week and then monitored for another 2 weeks. Each dose was tested on six mice in individual independent experiments. MTD was defined as the highest dose that could be given resulting in no drug-related moribund state or death, while temporary body weight loss was within 20%.

[8] = system: RAW264.7 macrophages; assay: Osteoclast differentiation assay (TRAP stain), M-CSF/RANKL-induced; format: cell-based, mouse; conditions: RAW264.7, M-CSF/RANKL 50 ng/ml 5 days; 5 nM MPT0G009 or 50 nM SAHA
Experimental: Osteoclast formation was measured by quantifying cells stained for the osteoclast marker TRAP using an acid phosphatase kit (387-A; Sigma-Aldrich). Briefly, the specimens were fixed for 30 s in fixative solution (25.5% citrate solution, 66.3% acetone, 8.2% of 37% formaldehyde), then incubated for 1 h at 37 °C with a mixture of the provided naphthol AS-BI phosphate and tartrate solutions, followed by counterstaining with hematoxylin solution. Osteoclasts were counted as TRAP-positive multinuclear (>3 nuclei) cells using light microscopy. The morphological features of osteoclasts were also photographed.

[9] = system: CD51/61 on RAW264.7 cells; assay: Osteoclast-specific marker CD51/61 by flow cytometry; conditions: RAW264.7, M-CSF/RANKL; 5 nM MPT0G009 or 50 nM SAHA
Experimental: Subsequently, multinucleate tartrate-resistant acid phosphatase (TRAP)-positive cells were counted.
Cells were then TRAP stained, and the numbers of TRAP-positive multinuclear cells were counted. […] Images are at × 100 magnification, and the arrows indicate differentiated osteoclasts.
Cells were then TRAP stained, and the numbers of TRAP-positive multinuclear cells were counted (d) or were incubated with a FITC-conjugated anti-CD51/61 antibody and analyzed by flow cytometry (e).
After three washes with FACS washing buffer, the fluorescence of the cells was analyzed on a FACScan flow cytometer (BD Biosciences).

[10] = system: RA-FLS; assay: Cell proliferation assay (SRB), RA-FLS; format: cell-based, human; conditions: 24 or 48 h
[11] = system: RA fibroblast-like synoviocyte (RA-FLS); assay: Inflammatory mediator production by stimulated RA-FLS; format: cell-based, human; conditions: MPT0G009 0.1, 1 or 10 μM, SAHA 0.3, 3 or 30 μM
Experimental: as §3, §4

COc1ccc(S(=O)(=O)N2CCc3cc(C=CC(=O)NO)ccc32)cc1 [MPT0G009, 3-[1-(4-methoxybenzenesulfonyl)-2,3-dihydro-1H-indol-5-yl]-N-hydroxyacrylamide]
acetylation of histone H3 (Acetyl-H3) ([1]; 1 μM MPT0G009 or 30 μM SAHA, 6, 12 or 24 h, starting at 12 h): significant hyperacetylation | levels of HDAC3 ([1]; 12 or 24 h, 1 μM MPT0G009 or 30 μM SAHA): decreased levels of HDAC3 | IC50 [2]: 8.43 ± 0.72 nM | potency relative to SAHA on HDACs inhibition [3]: > 10 times | AUC(0-inf) ([4]; iv, i.v. 2 mg/kg): 665 ng·h/mL | Vd ([4]; iv, i.v. 2 mg/kg): 25.2 L/kg | clearance ([4]; iv, i.v. 2 mg/kg): 85.3 mL/min/kg | half-life ([4]; iv, i.v. 2 mg/kg): 6.74 h | AUC(0-inf) ([4]; po, p.o. 20 mg/kg): 1260 ng·h/mL | Cmax ([4]; po, p.o. 20 mg/kg): 221 ng/mL | Tmax ([4]; po, p.o. 20 mg/kg): 3.43 h | half-life ([4]; po, p.o. 20 mg/kg): 9.53 h | bioavailability ([4]; po, p.o. 20 mg/kg, read-out: F (oral bioavailability)): 13% | potency relative to SAHA on HDACs inhibition [5]: > 10 times | NO production [6]: inhibited | PGE2 production [6]: inhibited | Lethality (%) ([7]; 250 mg/kg p.o.): 0% | Change of body weight (%) Day 7 ([7]; 250 mg/kg p.o.): +8.7±0.5% | Change of body weight (%) Day 14 ([7]; 250 mg/kg p.o.): +17.0±0.4% | Change of body weight (%) Day 21 ([7]; 250 mg/kg p.o.): +22.6±0.6% | Lethality (%) ([7]; 500 mg/kg p.o.): 0% | Change of body weight (%) Day 7 ([7]; 500 mg/kg p.o.): +1.6±0.3% | Change of body weight (%) Day 14 ([7]; 500 mg/kg p.o.): +16.5±0.6% | Change of body weight (%) Day 21 ([7]; 500 mg/kg p.o.): +24.0±0.9% | Lethality (%) ([7]; 1000 mg/kg p.o.): 0% | Change of body weight (%) Day 7 ([7]; 1000 mg/kg p.o.): +4.4±0.6% | Change of body weight (%) Day 14 ([7]; 1000 mg/kg p.o.): +12.0±0.7% | Change of body weight (%) Day 21 ([7]; 1000 mg/kg p.o.): +15.3±0.8% | adverse effects / tolerability ([7]; up to 1000 mg/kg/day, daily × 7, within 3 weeks): No significant adverse effects; also recorded: well tolerated and safe | formation of M-CSF/RANKL-induced TRAP-positive cells [8]: significantly inhibited | expression of the osteoclast-specific marker (CD51/61) [9]: significantly inhibited | anti-proliferative effect [10]: concentration-dependent anti-proliferative effects | IL-6 production ([11]; IL-1β 10 ng/ml 24 h): inhibited | PGE2 production ([11]; LPS 25 ng/ml 24 h): inhibited
